According to paper PMC12173945, “Import mechanism of peroxisomal proteins with an N-terminal signal sequence” (Nature Cell Biology, 2025):

Legend:
[1] = tested on: PEX7–receptor–cargo complex on PEX39-coated beads; assay: Bead-binding assay: recruitment of PEX7–receptor–cargo complex to PEX39-coated beads (Fig. 7d, 8a); design: species or system yeast (S. cerevisiae); details: 100 µM peptide, overnight, Fig. 8a
Source text: (§1) Cysteine-containing peptides were covalently conjugated to thiol-reactive SulfoLink coupling resin (Thermo Fisher, catalogue number 20401) according to the manufacturer’s instructions. The prepared beads were then mixed with Assay Buffer containing the fluorescently labelled protein as well as additional components indicated in the text, and the resulting bead suspensions were transferred to a 384-well glass-bottomed plate (Cellvis, P384-1.5H-N). GST-fusion proteins were instead mixed with glutathione agarose 4B (Prometheus, 20-543) in Assay Buffer containing the fluorescently labelled protein and additional components indicated in the text; the resulting bead suspensions were then transferred to a glass-bottomed plate as above. The plates were incubated at RT for the durations specified in the text and directly imaged on the spinning-disk confocal platform described earlier for peroxisomal import reactions in Xenopus egg extract. Note that imaging the beads directly in the binding reaction preserves the equilibrium and thereby allows even weak interactions to be detected. Fluorescence was collected through a Nikon ×10 0.45 NA Plan Apo air objective, and images were acquired using the Nikon NIS-Elements software and a 16-bit digitizer without binning. Imaging parameters were configured to maximize the SNR while avoiding saturation. Samples intended to be compared were imaged using identical acquisition settings.

[2] = tested on: yeast PEX7 bound to the ∆APH mutant of GST-tagged PEX39; assay: Competitive binding: peptide displacement of PEX7 from GST-tagged ∆APH PEX39 beads (Fig. 8b); design: species or system yeast (S. cerevisiae); details: for Stripping of PEX7 off PEX39 lacking the APH: peptide competition, Fig. 8b
Protocol: For the assay shown in Fig. 8b, the beads were first incubated with yeast PEX7 and the GST-tagged ∆APH variant of yeast PEX39 (each at 1 µM) for 30 min at 25 °C with agitation. Varying concentrations of the peptides, as indicated in the text, were then added and the reactions were incubated for a further 1 h under the same conditions. The beads were finally sedimented and the resulting supernatant fractions resolved by SDS–PAGE as above.
To calculate the fraction bound in the quantitative binding assay, digitized images of Coomassie-stained gels were first converted into 16-bit grayscale and their pixel intensities inverted. The mean pixel intensity was then measured within a rectangular selection encompassing each PEX7 protein band and the mean intensity of the background was subtracted from the measured values. The background-corrected intensities (corresponding to unbound PEX7 remaining in solution) were in turn subtracted from the intensity of the PEX7 band in a sample without PEX39 (that is, total PEX7). The resulting difference (corresponding to PEX7 that had bound to the beads) was finally divided by the total PEX7 intensity to yield the fraction bound. The data were fitted either to a standard binding isotherm or a competitive-binding isotherm, as appropriate, to estimate the observed binding constants.

[3] = tested on: yeast PEX7; assay: Bead-binding assay: peptide-conjugated beads, recruitment of PEX7–GFP or PTS2–GFP; design: species or system yeast (S. cerevisiae); details: 1 h; for Recruitment of PTS2–GFP to peptide-conjugated beads: 1 µM PEX7 and 1 µM receptor, 1 µM cargo; for Recruitment of PEX7–GFP to peptide-conjugated beads: peptide on thiol-reactive beads, fluorescence microscopy
Source text: as §1

[4] = tested on: YG hydrogel (wild-type YG-domain polypeptide of PEX13); assay: YG hydrogel permeation assay, wild-type hydrogel (Fig. 2, Fig. 3g, Extended Data Fig. 9d); details: PEX5-21 + PEX7
Protocol: A solution of the purified wild-type YG-domain polypeptide (or the variant lacking the KPWE motif) was concentrated to 2 mM in 50 mM HEPES·NaOH pH 7.8 at RT, 2 M urea and 2 mM TCEP. Aliquots of 2 µl were then spotted on the bottom of multiple wells of a 96-well glass-bottomed plate (Cellvis, P96-1.5H-N), which was then sealed with a gas-impermeable AlumaSeal II film (Hampton Research, HR8-069) to prevent desiccation and incubated at RT for 24 h. Before each assay, the resulting gels were equilibrated overnight at RT in a 100-fold excess of Assay Buffer (25 mM HEPES·NaOH pH 7.8 at RT, 150 mM NaCl and 1 mM TCEP). A 0.5 µM solution of fluorescently labelled protein in Assay Buffer was then added to the samples, with or without additional components at the concentrations indicated in the text, and incubated at RT. Gels were imaged at the times indicated in the text using a Nikon A1R point-scanning confocal system consisting of an inverted Nikon Eclipse Ti microscope and a Nikon ×20 0.75 NA Plan Apo air objective. The objective was centred on the gel edge and focus was maintained 5 µm above the glass surface using the Nikon Perfect Focus System. Fluorescence was excited through a 405/488/561/647 quad-band dichroic (Chroma), using a 488-nm solid-state laser (Coherent) and a galvano scanner. A 50-nm emission band was collected on a gallium arsenide phosphide detector, using an ET525/50m (525 ± 25 nm) single-band bandpass filter (Chroma) and a pinhole dilated to 0.9 Airy units. Images were acquired using the Nikon NIS-Elements software with a pixel size of 1 µm and a 12-bit digitizer. Imaging parameters were configured to maximize the SNR while avoiding saturation. All samples intended to be compared were imaged using identical acquisition settings.
For the YG hydrogel permeation assay, images were first oriented such that each gel edge faced the same direction. Fluorescence profiles across the buffer–gel interface were then generated by centering a 60 × 300 µm rectangular area on the gel edge and then measuring the mean fluorescence at each position within this selection. To express the resulting values in terms of fold enrichment, the fluorescence at each position along the selection was normalized to the average fluorescence in the buffer and plotted in terms of the distance from the gel edge.
To calculate permeation rates through the YG hydrogel, a 60 × 300 µm rectangular area was first centred on the gel edge. The resulting region was then thresholded to demarcate the permeation zone (that is, the distance traversed by the fluorescent species) from the buffer and non-permeated part of the gel. The width of the area above the threshold was then measured and plotted as a function of time. A linear fit to the data yielded the permeation rate.

CSSTAVPEPRWKPTSASLEE [scrambled peptide, KPWE peptide with amino acids 8 and 10–13 rearranged]
Effect of peptide on recruitment of the PEX7–receptor–cargo complex to PEX39-coated beads [1]: had no effect
Fraction bound ([2]; [Peptide] 10 µM, replicate 1): 0.936
Fraction bound ([2]; [Peptide] 10 µM, replicate 2): 0.865
Fraction bound ([2]; [Peptide] 10 µM, replicate 3): 0.914
Fraction bound ([2]; [Peptide] 30 µM, replicate 1): 0.947
Fraction bound ([2]; [Peptide] 30 µM, replicate 2): 0.840
Fraction bound ([2]; [Peptide] 30 µM, replicate 3): 0.887
Fraction bound ([2]; [Peptide] 100 µM, replicate 1): 0.965
Fraction bound ([2]; [Peptide] 100 µM, replicate 2): 0.864
Fraction bound ([2]; [Peptide] 100 µM, replicate 3): 0.888
Fraction bound ([2]; [Peptide] 300 µM, replicate 1): 0.952
Fraction bound ([2]; [Peptide] 300 µM, replicate 2): 0.871
Fraction bound ([2]; [Peptide] 300 µM, replicate 3): 0.887
Fraction bound ([2]; [Peptide] 1000 µM, replicate 1): 0.902
Fraction bound ([2]; [Peptide] 1000 µM, replicate 2): 0.861
Fraction bound ([2]; [Peptide] 1000 µM, replicate 3): 0.848
Stripping of PEX7 off PEX39 lacking the APH [2]: could not
Recruitment of PTS2–GFP to peptide-conjugated beads [3]: No binding was seen
Recruitment of PEX7–GFP to peptide-conjugated beads [3]: could not

PTS1: mEGFP fused at the C terminus to an enhanced PTS1 import signal (GYKGLKSKL)
Displacement ([4]; 0 min, replicate 1): 0.000 µm
Displacement ([4]; 0 min, replicate 2): 0.000 µm
Displacement ([4]; 0 min, replicate 3): 0.000 µm
Displacement ([4]; 30 min, replicate 1): 44.992 µm
Displacement ([4]; 30 min, replicate 2): 39.993 µm
Displacement ([4]; 30 min, replicate 3): 31.994 µm
Displacement ([4]; 60 min, replicate 1): 64.988 µm
Displacement ([4]; 60 min, replicate 2): 59.989 µm
Displacement ([4]; 60 min, replicate 3): 45.992 µm

CSSTAVPRPKPWETSASLEE [KPWE peptide, residues 2–20 of S. cerevisiae PEX13 with an additional N-terminal cysteine]
Effect of peptide on recruitment of the PEX7–receptor–cargo complex to PEX39-coated beads [1]: no longer efficiently recruited to PEX39-coated beads
Kobs (observed binding constant) ([2]; PEX7 and GST-PEX39 ∆APH each 1 µM, peptide added 1 h, 25 °C, competitive-binding isotherm, mean ± s.e.m., three independent experiments, ND = binding not detectable): 41 ± 1.2 µM
Fraction bound ([2]; [Peptide] 10 µM, replicate 1): 0.810
Fraction bound ([2]; [Peptide] 10 µM, replicate 2): 0.769
Fraction bound ([2]; [Peptide] 10 µM, replicate 3): 0.841
Fraction bound ([2]; [Peptide] 30 µM, replicate 1): 0.666
Fraction bound ([2]; [Peptide] 30 µM, replicate 2): 0.688
Fraction bound ([2]; [Peptide] 30 µM, replicate 3): 0.732
Fraction bound ([2]; [Peptide] 100 µM, replicate 1): 0.458
Fraction bound ([2]; [Peptide] 100 µM, replicate 2): 0.521
Fraction bound ([2]; [Peptide] 100 µM, replicate 3): 0.552
Fraction bound ([2]; [Peptide] 300 µM, replicate 1): 0.302
Fraction bound ([2]; [Peptide] 300 µM, replicate 2): 0.372
Fraction bound ([2]; [Peptide] 300 µM, replicate 3): 0.402
Fraction bound ([2]; [Peptide] 1000 µM, replicate 1): 0.141
Fraction bound ([2]; [Peptide] 1000 µM, replicate 2): 0.198
Fraction bound ([2]; [Peptide] 1000 µM, replicate 3): 0.200
Stripping of PEX7 off PEX39 lacking the APH [2]: could strip off PEX7 from PEX39 lacking the APH
Recruitment of PTS2–GFP to peptide-conjugated beads [3]: could recruit PTS2–GFP only when PEX7 and the receptor were both present
Recruitment of PEX7–GFP to peptide-conjugated beads [3]: could recruit yeast PEX7 fused at the C terminus to GFP
